Source: article PMC6426982, “Anti-alcohol abuse drug disulfiram inhibits human PHGDH via disruption of its active tetrameric form through a specific cysteine oxidation” (Scientific Reports, 2019)
Numbering of substitutions follows the chain as printed. Where two headings read alike, the source gives them in different places. One block for each compound: values may come before it.

Legend:
human PHGDH (wild type) [1] = biological target: T1, human PHGDH (wild type) (Homo sapiens, UniProt O43175); experiment: PHGDH isolated enzyme inhibition assay (NADH fluorescence), wild type; type: biochemical
T1 construct: peptides including 12 out of the 13 Cys residues of the full length PHGDH could be identified and tracked; made in house; host or cells: Escherichia coli BL21
T1 sequence (O43175 1-533): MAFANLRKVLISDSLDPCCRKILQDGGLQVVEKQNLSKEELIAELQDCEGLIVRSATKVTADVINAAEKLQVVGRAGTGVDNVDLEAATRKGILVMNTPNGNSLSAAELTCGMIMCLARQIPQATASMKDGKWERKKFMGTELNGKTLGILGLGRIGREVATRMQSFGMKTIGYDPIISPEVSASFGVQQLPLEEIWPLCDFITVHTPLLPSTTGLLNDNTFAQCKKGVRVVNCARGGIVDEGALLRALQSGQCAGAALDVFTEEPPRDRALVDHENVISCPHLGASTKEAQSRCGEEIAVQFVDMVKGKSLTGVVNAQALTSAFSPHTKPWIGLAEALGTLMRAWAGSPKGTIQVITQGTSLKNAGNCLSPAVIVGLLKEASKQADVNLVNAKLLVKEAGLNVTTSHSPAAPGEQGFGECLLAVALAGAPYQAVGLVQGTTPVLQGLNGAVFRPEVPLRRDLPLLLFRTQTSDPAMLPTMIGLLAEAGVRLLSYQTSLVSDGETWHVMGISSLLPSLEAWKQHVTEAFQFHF
Method: Enzymatic assay was adapted from a previously described procedure. […] Assays were performed in PHGDH assay buffer (50 mM Tris, pH 8.5, and 1 mM EDTA). […] The final concentration of DMSO in the assay mixture was set to 5%.
pET28a human PHGDH and pET28a human C116S PHGDH were transformed into BL21 Escherichia coli. A single colony was grown to an OD600 0.6 in 1 L of Luria broth. Protein expression was induced with 1 mM isopropyl thiogalactopyranoside (IPTG). […] Pellets were resuspended in 60 mL of lysis buffer (50 mM Tris, pH 8.5, 10 mM MgCl2, 300 mM NaCl, 10% glycerol, 5 mM imidazole) and sonicated, and cell debris were pelleted by centrifugation (20,000 × g, 30 min). The supernatant was collected and purified using Akta purifier on HisTrap^TM FF column (GE Healthcare). […] Fraction protein content was measured via a Bradford assay. […] Protein purity was assessed via SDS/PAGE and Coomassie staining.

human PHGDH (wild type) [2] = biological target: T1, human PHGDH (wild type); set-up: method as in PMID 28085281; conditions: drug screening campaign in the authors' lab; cited from earlier work
PHGDH [3] = biological target: T2, PHGDH (Homo sapiens, UniProt O43175); experiment: Rapid dilution assay; type: biochemical; conditions: DSF 50 µM (Fig. 1B)
T2 construct: peptides including 12 out of the 13 Cys residues of the full length PHGDH could be identified and tracked; made in house; host or cells: Escherichia coli BL21
T2 sequence (O43175 1-533): T1 sequence (O43175 1-533)
Method: (§1) Figure 1 Characterization of PHGDH inhibition by DSF. Residual activity percentage of PHGDH (A) upon incubation with DSF (50 µM) for the indicated times and (B) after the rapid dilution assay experiment with DSF (50 µM). All experiments values were performed in triplicates at each compound dilution and error bars show the standard deviation. Data were collected at 37 °C with a PHGDH concentration of 12 ng/µL in 50 mM Tris and 1 mM EDTA at pH 8.5.
Dilution experiment was conducted following a reported procedure. DSF (5 μM) or DMSO control was incubated with PHGDH for 45 min at 37 °C. Undiluted DSF (5 μM) was included as a positive control for inhibition.

UM-UC-3-PHGDH+ cells = experiment: Cell proliferation inhibition (Presto Blue), PHGDH-expressing cells; type: cell-based, human
Method: (§2) UM-UC-3 (PHGDH+ and PHGDH-) bladder cancer cells were purchased from the ATCC and cultured in DMEM medium supplemented with 10% heat-inactivated Fetal Bovine Serum (FBS) and 1% penicillin/streptomycin. Cells were seeded at 2500 cells/well in 96-well plates in serine depleted media (MEM). DSF or vehicle (DSMO) was added and cells were grown for 48 hours. Viability was assessed using Presto Blue reagent (Life Technologies) according to manufacturer’s instructions.

UM-UC-3-PHGDH- cells = experiment: Cell proliferation inhibition (Presto Blue), cells not expressing PHGDH; type: cell-based; conditions: Homo sapiens, UMUC3, serine depleted media, 48 hours
Method: as §2

PHGDH cysteine residues = biological target: T3, PHGDH cysteine residues (Homo sapiens, UniProt O43175); experiment: nanoUHPLC/MS of tryptic PHGDH peptides after DSF treatment (cysteine modification)
T3 construct: peptides including 12 out of the 13 Cys residues of the full length PHGDH could be identified and tracked; made in house; host or cells: Escherichia coli BL21
T3 sequence (O43175 1-533): T1 sequence (O43175 1-533)
Method: To unambiguously confirm this hypothesis and possibly identify the cysteine residues involved in this interaction, mass spectrometry experiments were undertaken. Briefly, PHGDH was incubated for 30 min with various concentrations of disulfiram (0.1x IC50, 1x IC50 and 10x IC50). At the end of the incubation, chloroacetamide was added and incubated 15′ in large excess in order to block the remaining free cysteines residues for the following analysis. The protein was separated from the medium (removal of the remaining chloroacetamide and DSF by liquid/liquid extraction with CHCl3/H2O) followed by trypsinization and analysis of the peptides by nanoUHPLC/MS.
Mass spectrometry experiments were carried out on an Orbitrap Lumos, following a previously reported procedure, with some modifications. A local protein database containing the human PHGDH sequence (accession Uniprot O43175) was used to process the obtained MS/MS data. Mass error was set to 15 ppm for precursor ions and 0.6 Da for fragment ions. Oxidation on Met; disulfiram, (+147.025 Da) and carbamidomethyl (+57.021 Da) were considered as variable modifications on Cys.

human PHGDH C116S mutant = biological target: T4, human PHGDH C116S mutant (Homo sapiens, UniProt O43175, C116S); experiment: PHGDH enzyme inhibition assay, C116S mutant; type: biochemical
T4 construct: peptides including 12 out of the 13 Cys residues of the full length PHGDH could be identified and tracked; made in house; host or cells: Escherichia coli BL21
T4 sequence (O43175 1-533 C116S): T1 sequence (O43175 1-533) with C116S
Method: (§3) Enzymatic assay was adapted from a previously described procedure. NADH fluorescence emission (Ex 340 nm/Em 460 nm) was followed over time. Assays were performed in PHGDH assay buffer (50 mM Tris, pH 8.5, and 1 mM EDTA). Substrates and enzyme concentrations were as follows: 3-PG, 240 μM; NAD^+, 120 μM; glutamate, 30 mM; PHGDH, 12 ng/μL; PSAT1, 20 ng/μL. The final concentration of DMSO in the assay mixture was set to 5%.
pET28a human PHGDH and pET28a human C116S PHGDH were transformed into BL21 Escherichia coli. A single colony was grown to an OD600 0.6 in 1 L of Luria broth. Protein expression was induced with 1 mM isopropyl thiogalactopyranoside (IPTG). The culture was chilled on ice for 30 min, cultured for 18 h at room temperature and pelleted (6,000 g, 20 min). Pellets were resuspended in 60 mL of lysis buffer (50 mM Tris, pH 8.5, 10 mM MgCl2, 300 mM NaCl, 10% glycerol, 5 mM imidazole) and sonicated, and cell debris were pelleted by centrifugation (20,000 × g, 30 min). The supernatant was collected and purified using Akta purifier on HisTrap^TM FF column (GE Healthcare). […] Fraction protein content was measured via a Bradford assay. […] Protein purity was assessed via SDS/PAGE and Coomassie staining.

PHGDH [4] = biological target: T2, PHGDH; experiment: Cross-linking experiment with BS3 (oligomeric state); conditions: DSF 1-500 µM, 30 min, BS3 cross-linker
Method: PHGDH (3 μg) was incubated with DSF (1 µM, 5 µM, 10 µM, 50 μM, 100 μM, 250 µM, 500 μM) or vehicle control (DMSO) in 25 mM HEPES, pH 7.3, and 1 mM NAD^+ in 18 μL total volume for 30 min on ice. BS3 (S5799; Sigma) cross-linker dissolved in PBS was added to a final concentration of 5 mM and incubated for 30 min under shaking at room temperature. The reaction was then quenched for 15 min by adding 1 M Tris, pH 7.5, to a final concentration of 28 mM. Cross-linked proteins were mixed with sample buffer, boiled for 5 min, and run on SDS/PAGE. Gels were stained with Gelcode blue stain reagent (24592; Thermo) overnight and destained according to the manufacturer’s instructions.

PHGDH [5] = biological target: T2, PHGDH; experiment: Incubation assay (time-dependent PHGDH inhibition); type: biochemical; conditions: DSF 50 µM, 45 min incubation, 37 °C, Fig. 1A; read-out: PHGDH inhibition after incubation
Method: as §1, §3

[6] = cited from earlier work

IC50 (human PHGDH (wild type) [1]; wild type PHGDH 12 ng/µL, 37 °C, pH 8.5, Fig. 2, read-out: PHGDH inhibition (IC50)): ~10000 nM | fold weaker IC50 compared to DSF (human PHGDH (wild type) [1]; wtPHGDH): about 16 fold
SMILES: CCN(CC)C(=S)[S][Cu][S]C(=S)N(CC)CC [CuET, bis(diethyldithiocarbamate)–copper]

IC50 (human PHGDH (wild type) [1]; Wild Type PHGDH, Table 2, read-out: PHGDH inhibition (IC50)): 590 nM | IC50 (human PHGDH (wild type) [1]; purified PHGDH, triplicates, Table 1, read-out: PHGDH inhibition (IC50)): 590 nM | IC50 (human PHGDH (wild type) [1]; with Triton X 0.01%, Fig. S1B, read-out: IC50 on PHGDH WT): 490 nM | IC50 (human PHGDH (wild type) [1]; without Triton X, Fig. S1A, read-out: IC50 on PHGDH WT): 530 nM | PHGDH activity after rapid dilution of the enzyme/inhibitor complex (PHGDH [3]): not restored | Percentage of modified peptides, C111 (PHGDH cysteine residues; DSF 0.05 µM, peptide 91-119): 4.87% | Percentage of modified peptides, C116 (PHGDH cysteine residues; DSF 0.05 µM, peptide 91-119): 9.75% | Percentage of modified peptides, C111 (PHGDH cysteine residues; DSF 0.05 µM, peptide 92-119): 1.92% | Percentage of modified peptides, C116 (PHGDH cysteine residues; DSF 0.05 µM, peptide 92-119): 7.69% | Percentage of modified peptides, C116 (PHGDH cysteine residues; DSF 0.5 µM, peptide 91-119 (Ox M)): 7.14% | Percentage of modified peptides, C111 (PHGDH cysteine residues; DSF 0.5 µM, peptide 92-119): 6.67% | Percentage of modified peptides, C116 (PHGDH cysteine residues; DSF 0.5 µM, peptide 92-119): 46.67% | Percentage of modified peptides, C111 (PHGDH cysteine residues; DSF 5 µM, peptide 91-119): 4.16% | Percentage of modified peptides, C116 (PHGDH cysteine residues; DSF 5 µM, peptide 91-119): 50.00% | Percentage of modified peptides, C111 (PHGDH cysteine residues; DSF 5 µM, peptide 92-119): 10.34% | Percentage of modified peptides, C116 (PHGDH cysteine residues; DSF 5 µM, peptide 92-119): 39.65% | Percentage of modified peptides, C281 (PHGDH cysteine residues; DSF 5 µM, peptide 271-289): 1.26% | decrease in inhibitory potency on C116S mutant versus wild type enzyme (human PHGDH C116S mutant): 20 fold | IC50 (human PHGDH C116S mutant; C116S mutant, Table 2): 10200 nM | inhibition at 50 µM (PHGDH [5]): 100%
SMILES: CCN(CC)C(=S)SSC(=S)N(CC)CC [DSF, bis(diethylthiocarbamoyl) disulfide]
IC50 (human PHGDH (wild type) [2]): 590 nM | IC50 (UM-UC-3-PHGDH+ cells; Homo sapiens, UMUC3, 48 h, UM-UC-3 +PHGDH, serine depleted media, 48 hours): 775 nM | difference in proliferation IC50 between PHGDH- and PHGDH+ cells (UM-UC-3-PHGDH+ cells; UM-UC-3-PHGDH- versus UM-UC-3-PHGDH+): ~ 5 fold | IC50 (UM-UC-3-PHGDH- cells): 3640 nM | oligomeric state of PHGDH after DSF treatment (PHGDH [4]): concentration-dependent shift from the tetrameric to the dimeric, and to a lesser extent to the monomeric, form | Cmax ([6]; reported, read-out: maximum plasma concentration (Cmax)): 1280 nM | elimination half-life ([6]; single-dose administration of 250 mg of DSF): 7.3 h
